Experimental findings from patent US7452887B2, “Quinoline- and isoquinoline-based compounds exhibiting ATP-utilizing enzyme inhibitory activity, and compositions, and uses thereof” (Amphora Discovery Corporation, priority 2004, dated 2008) are described below.

Each structure is given as a SMILES string.

Common to all, as to assay: HTS ATP-utilizing enzyme assay, off-chip mobility-shift (Caliper HTS 250)
Assay type in all cases: biochemical
Common to all, as to conditions: test compound 10 μM, kinase listed = active (greater than six-sigma from the mean activity of inactive compounds)

Test [1] addresses ROCK2 (Homo sapiens, UniProt O75116). The gist of the method: (§1)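 Inhibition is reported from a single 10 μM concentration. Kinase phosphorylates a peptide substrate over 2.5 hrs at 20° C. to 22° C. before EDTA termination. Potential hits are those beyond six-sigma statistical limits.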
Test [2] deals with GSK3-α (Homo sapiens, UniProt P49840). The gist of the method: as §1
Test [3] addresses CDK1/cyclin B (Homo sapiens, UniProt P06493). The method in brief:
as §1

For test [4], the target named is T1, CHEK1 (Homo sapiens, UniProt O14757).
T1 sequence (O14757 1-476): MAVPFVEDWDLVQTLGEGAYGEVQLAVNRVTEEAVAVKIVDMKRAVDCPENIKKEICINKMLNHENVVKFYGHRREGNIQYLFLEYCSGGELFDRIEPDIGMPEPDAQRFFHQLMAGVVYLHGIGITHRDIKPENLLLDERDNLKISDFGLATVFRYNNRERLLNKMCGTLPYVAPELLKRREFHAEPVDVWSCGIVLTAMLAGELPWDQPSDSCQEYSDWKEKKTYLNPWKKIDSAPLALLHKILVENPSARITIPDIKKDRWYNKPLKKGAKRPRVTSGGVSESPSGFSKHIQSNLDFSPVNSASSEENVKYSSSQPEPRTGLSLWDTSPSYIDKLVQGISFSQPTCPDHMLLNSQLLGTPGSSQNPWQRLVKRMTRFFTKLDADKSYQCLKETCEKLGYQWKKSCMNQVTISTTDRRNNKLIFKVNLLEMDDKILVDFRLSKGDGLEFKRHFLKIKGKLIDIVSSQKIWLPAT
The gist of the method: as §1

Test [5] concerns the target PDGFR-α (Homo sapiens, UniProt P16234). The gist of the method:
as §1

For test [6], the target named is LYNA (Homo sapiens, UniProt P07948). The gist of the method:
as §1

The target in test [7] is SYK (Homo sapiens, UniProt P43405). The gist of the method: as §1
For test [8], the target named is ABL1 (Homo sapiens, UniProt P00519). The method in brief:
as §1

Test [9] addresses AKT3 (Homo sapiens, UniProt Q9Y243). The gist of the method:
as §1

In test [10] the target is LCK (Homo sapiens, UniProt P06239). The gist of the method:
as §1

Test [11] addresses CHEK2 (Homo sapiens, UniProt O96017). The method in brief:
as §1

Test [12] addresses MSK1 (Homo sapiens, UniProt O75582). The gist of the method: as §1
In test [13] the target is CDK5 (Homo sapiens, UniProt Q00535). The gist of the method:
as §1

For test [14], the target named is GSK-3-β (Homo sapiens, UniProt P49841). The gist of the method:
as §1

The target of test [15] is PKA (Homo sapiens, UniProt P17612). The gist of the method: as §1

Sequence of ROCK2 (O75116 whole entry): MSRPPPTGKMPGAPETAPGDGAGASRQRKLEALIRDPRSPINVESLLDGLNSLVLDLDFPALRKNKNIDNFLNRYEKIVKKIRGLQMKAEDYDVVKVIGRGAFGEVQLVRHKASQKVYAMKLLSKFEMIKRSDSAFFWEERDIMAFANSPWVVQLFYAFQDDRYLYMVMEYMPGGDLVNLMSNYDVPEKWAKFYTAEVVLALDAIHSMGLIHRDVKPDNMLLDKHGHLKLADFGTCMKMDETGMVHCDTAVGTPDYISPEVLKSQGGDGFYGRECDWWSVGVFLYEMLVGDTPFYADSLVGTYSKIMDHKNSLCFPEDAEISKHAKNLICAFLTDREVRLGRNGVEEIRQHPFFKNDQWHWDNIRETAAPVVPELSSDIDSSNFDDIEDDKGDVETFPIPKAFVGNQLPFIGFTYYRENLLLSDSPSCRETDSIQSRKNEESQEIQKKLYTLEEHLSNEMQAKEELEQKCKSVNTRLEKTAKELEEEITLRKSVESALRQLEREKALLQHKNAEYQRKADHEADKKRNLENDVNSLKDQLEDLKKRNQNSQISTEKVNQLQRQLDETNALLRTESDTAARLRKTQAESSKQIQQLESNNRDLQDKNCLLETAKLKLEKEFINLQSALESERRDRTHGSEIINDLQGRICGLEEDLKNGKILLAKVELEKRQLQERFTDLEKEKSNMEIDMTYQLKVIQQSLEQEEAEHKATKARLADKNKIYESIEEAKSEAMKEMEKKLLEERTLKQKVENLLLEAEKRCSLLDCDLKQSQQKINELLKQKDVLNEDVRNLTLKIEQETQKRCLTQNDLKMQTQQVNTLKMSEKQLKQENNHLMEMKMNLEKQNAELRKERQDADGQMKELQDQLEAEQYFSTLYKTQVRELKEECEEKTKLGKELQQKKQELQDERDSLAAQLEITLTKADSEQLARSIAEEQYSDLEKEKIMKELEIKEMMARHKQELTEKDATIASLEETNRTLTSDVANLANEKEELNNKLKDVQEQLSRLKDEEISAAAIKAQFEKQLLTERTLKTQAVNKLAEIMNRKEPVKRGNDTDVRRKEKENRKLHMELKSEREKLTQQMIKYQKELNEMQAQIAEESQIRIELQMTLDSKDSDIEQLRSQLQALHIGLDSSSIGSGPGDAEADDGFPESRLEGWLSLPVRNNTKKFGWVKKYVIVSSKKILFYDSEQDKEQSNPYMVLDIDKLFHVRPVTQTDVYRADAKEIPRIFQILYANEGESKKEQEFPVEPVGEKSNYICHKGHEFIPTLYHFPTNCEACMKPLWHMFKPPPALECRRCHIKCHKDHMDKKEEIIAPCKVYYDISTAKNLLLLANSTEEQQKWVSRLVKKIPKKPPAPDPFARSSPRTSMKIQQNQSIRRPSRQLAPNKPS
Sequence of CDK1/cyclin B (P06493 whole entry): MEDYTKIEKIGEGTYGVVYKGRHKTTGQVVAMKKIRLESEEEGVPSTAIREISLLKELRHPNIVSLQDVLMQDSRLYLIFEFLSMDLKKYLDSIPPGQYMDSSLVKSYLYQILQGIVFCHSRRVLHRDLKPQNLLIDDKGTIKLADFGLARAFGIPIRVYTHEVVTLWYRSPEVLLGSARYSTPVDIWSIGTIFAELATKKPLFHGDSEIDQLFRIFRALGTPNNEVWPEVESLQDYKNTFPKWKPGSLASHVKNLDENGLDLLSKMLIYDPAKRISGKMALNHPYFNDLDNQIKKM
Sequence of CDK1/cyclin B (P14635 whole entry partner): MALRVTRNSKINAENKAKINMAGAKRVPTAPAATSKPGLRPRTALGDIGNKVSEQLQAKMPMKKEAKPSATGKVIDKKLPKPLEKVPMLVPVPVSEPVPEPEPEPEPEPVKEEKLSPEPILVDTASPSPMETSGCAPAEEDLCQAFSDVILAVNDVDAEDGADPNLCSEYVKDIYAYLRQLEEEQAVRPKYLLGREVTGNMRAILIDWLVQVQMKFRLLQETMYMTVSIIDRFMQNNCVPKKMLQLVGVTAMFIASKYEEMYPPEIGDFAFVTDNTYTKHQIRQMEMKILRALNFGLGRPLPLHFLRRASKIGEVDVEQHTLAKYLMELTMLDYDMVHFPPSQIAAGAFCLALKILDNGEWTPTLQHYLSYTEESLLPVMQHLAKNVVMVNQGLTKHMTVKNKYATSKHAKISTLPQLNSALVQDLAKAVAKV
Sequence of LYNA (P07948 whole entry): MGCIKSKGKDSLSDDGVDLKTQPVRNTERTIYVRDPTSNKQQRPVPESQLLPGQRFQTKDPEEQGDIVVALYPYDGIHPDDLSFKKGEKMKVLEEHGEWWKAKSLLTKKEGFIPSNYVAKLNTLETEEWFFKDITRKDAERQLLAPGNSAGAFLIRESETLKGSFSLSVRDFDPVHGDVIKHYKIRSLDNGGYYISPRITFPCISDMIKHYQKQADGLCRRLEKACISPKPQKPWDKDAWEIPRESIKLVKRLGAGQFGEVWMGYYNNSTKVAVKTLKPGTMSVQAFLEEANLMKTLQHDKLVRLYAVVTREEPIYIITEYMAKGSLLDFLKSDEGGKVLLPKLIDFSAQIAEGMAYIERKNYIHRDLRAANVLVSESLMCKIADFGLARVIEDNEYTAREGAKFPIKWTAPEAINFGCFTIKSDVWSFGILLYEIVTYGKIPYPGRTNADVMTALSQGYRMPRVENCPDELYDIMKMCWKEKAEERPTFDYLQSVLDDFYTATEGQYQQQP
Sequence of PDGFR-α (P16234 24-1089): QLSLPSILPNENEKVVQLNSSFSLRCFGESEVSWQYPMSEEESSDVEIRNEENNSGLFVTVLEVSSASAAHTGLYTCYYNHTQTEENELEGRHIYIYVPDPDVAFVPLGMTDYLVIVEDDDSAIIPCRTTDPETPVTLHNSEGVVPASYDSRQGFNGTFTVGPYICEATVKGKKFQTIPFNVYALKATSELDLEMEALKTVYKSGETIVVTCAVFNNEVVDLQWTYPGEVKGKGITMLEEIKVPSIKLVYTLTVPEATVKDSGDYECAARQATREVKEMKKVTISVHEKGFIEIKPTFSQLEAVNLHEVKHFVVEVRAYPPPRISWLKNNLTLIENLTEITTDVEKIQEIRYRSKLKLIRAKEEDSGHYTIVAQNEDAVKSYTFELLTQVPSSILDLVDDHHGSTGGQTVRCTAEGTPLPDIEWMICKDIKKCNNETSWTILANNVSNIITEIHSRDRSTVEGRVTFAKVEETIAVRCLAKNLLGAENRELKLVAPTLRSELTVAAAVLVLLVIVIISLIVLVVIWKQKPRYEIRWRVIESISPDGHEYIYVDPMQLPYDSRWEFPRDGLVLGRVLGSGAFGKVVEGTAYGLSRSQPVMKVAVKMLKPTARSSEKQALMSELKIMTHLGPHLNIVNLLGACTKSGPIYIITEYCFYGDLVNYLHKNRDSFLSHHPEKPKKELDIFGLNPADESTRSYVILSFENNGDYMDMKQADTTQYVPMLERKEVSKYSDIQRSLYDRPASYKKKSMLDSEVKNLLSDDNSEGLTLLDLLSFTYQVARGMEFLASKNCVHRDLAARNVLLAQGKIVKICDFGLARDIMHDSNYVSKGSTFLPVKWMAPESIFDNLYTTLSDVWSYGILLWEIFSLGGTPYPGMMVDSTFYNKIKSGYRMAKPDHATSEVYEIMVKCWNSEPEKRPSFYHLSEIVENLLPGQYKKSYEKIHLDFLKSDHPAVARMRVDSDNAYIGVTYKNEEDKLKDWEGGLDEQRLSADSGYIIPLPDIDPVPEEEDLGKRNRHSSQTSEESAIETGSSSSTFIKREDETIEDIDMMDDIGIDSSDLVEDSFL
Sequence of AKT3 (Q9Y243 whole entry): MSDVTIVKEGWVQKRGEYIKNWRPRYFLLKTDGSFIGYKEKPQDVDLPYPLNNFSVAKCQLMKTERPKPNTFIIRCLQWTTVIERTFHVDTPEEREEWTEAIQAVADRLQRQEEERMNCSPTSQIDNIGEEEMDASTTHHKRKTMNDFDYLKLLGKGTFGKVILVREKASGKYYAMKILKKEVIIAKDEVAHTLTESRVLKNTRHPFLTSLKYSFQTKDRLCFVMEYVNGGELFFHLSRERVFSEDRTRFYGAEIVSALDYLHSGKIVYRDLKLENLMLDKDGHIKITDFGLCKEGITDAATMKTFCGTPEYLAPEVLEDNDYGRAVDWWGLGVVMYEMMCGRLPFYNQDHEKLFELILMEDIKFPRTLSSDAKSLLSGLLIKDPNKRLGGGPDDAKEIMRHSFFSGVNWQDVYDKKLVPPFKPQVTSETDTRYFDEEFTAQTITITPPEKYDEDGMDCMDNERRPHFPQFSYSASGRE
Sequence of GSK3-α (P49840 whole entry): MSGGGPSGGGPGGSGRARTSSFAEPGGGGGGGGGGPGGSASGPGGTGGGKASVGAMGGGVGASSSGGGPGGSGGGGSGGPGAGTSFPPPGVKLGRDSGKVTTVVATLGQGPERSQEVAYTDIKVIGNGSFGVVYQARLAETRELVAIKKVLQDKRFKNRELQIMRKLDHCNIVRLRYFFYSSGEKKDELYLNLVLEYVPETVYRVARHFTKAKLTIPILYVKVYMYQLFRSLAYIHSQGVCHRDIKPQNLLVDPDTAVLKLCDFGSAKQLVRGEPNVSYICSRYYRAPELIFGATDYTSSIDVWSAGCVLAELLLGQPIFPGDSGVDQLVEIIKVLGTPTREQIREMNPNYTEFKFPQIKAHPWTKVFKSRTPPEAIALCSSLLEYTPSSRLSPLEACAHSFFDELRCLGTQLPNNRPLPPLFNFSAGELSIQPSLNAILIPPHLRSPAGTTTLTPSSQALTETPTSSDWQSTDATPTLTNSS

For `CN1CCN(c2ccc(Nc3ccnc4ccc(-c5ccc(O)cc5)cc34)cc2)CC1` [4-(4-(4-(4-methylpiperazin-1-yl)phenylamino)quinolin-6-yl)phenol], the Activity entry in [1] was “ROCK2”.

Consider `CN1CCN(c2ccc(Nc3ccnc4ccc(-c5ccc(F)cc5)cc34)cc2)CC1` [6-(4-fluorophenyl)-N-(4-(4-methylpiperazin-1-yl)phenyl)quinolin-4-amine], for which the Activity result in [2] was “GSK3-α”.

Take `COc1ccc(-c2ccc3nccc(Nc4ccc(N5CCNCC5)cc4)c3c2)cc1` [6-(4-methoxyphenyl)-N-(4-(piperazin-1-yl)phenyl)quinolin-4-amine]: the Activity entry in [3] is listed as “CDK1/cyclin B”; in [4], “CHEK1”.

As to `COc1ccc(-c2ccc3nccc(N(C)c4ccc(N5CCN(C)CC5)cc4)c3c2)cc1` [6-(4-methoxyphenyl)-N-methyl-N-(4-(4-methylpiperazin-1-yl)phenyl)quinolin-4-amine], the Activity entry in [5] is recorded as “PDGFR-α”.

With `c1ccc(-c2ccc3nccc(Nc4ccc(N5CCNCC5)cc4)c3c2)cc1` [6-phenyl-N-(4-(piperazin-1-yl)phenyl)quinolin-4-amine], the Activity result in test [6] is on record as “LYNA”; in [5], “PDGFR-α”; in test [4], “CHEK1”.

With `CN1CCN(c2ccc(Nc3ccnc4ccc(-c5cccc6ccccc56)cc34)cc2)CC1` [N-(4-(4-methylpiperazin-1-yl)phenyl)-6-(naphthalen-1-yl)quinolin-4-amine], the Activity result in [7] is given as “SYK”; in [6], “LYNA”; in test [3], “CDK1/cyclin B”; in [8], “ABL1”; in test [9], “AKT3”; in [10] it was “LCK”. For the same molecule, the Activity result in test [11] is given as “CHEK2”.

For the molecule `CN1CCN(c2ccc(Nc3ccnc4ccc(-c5ccc6ccccc6c5)cc34)cc2)CC1` [N-(4-(4-methylpiperazin-1-yl)phenyl)-6-(naphthalen-2-yl)quinolin-4-amine], the Activity result in [7] is given as “SYK”; in test [4], “CHEK1”; in [11], “CHEK2”.

For the molecule `CN1CCN(c2ccc(Nc3ccnc4ccc(-c5ccncc5)cc34)cc2)CC1` [N-(4-(4-methylpiperazin-1-yl)phenyl)-6-(pyridin-4-yl)quinolin-4-amine], the Activity result in test [12] is listed as “MSK1”; in [13], “CDK5”; in [9], “AKT3”; in test [1], “ROCK2”; in test [14], “GSK-3-β”; in test [2] it was “GSK-3-α”. Besides, in [15], the Activity result was “PKA”.
